Measurements reported in patent publication US20210113640A1, “COMPOSITION FOR PROMOTING HAIR GROWTH OR PREVENTING HAIR LOSS CONTAINING EXTRACT OF ASTER AGERATOIDES” (KOREA INSTITUTE OF SCIENCE AND TECHNOLOGY, priority 2019, published 2021).

Columns and labels:
[1] = tested on: hair growth in C57BL/6 mice skin tissue; assay: Induction of hair growth phase in depilated C57BL/6 mice (topical, 30 days); type: in vivo; details: applied once a day for 30 days
Protocol: 6-week-old C57BL/6 female mice with white or pink back skin were used as experimental animals and the experiment was conducted according to guidelines for the management and use of laboratory animals approved by the Animal Research Ethics Committee of the Korea Institute of Science and Technology (approval number: […]-2018-081). […] The back hairs of the mice were depilated using an electric shaver and a test substance was applied to the depilated area once a day for 30 days. […] 30 days after treatment with the sample, the hairs were randomly collected, the thickness and length of the hairs were measured, and the results are shown in FIG. 3 and Table 1. On the last day of application of the test substance, the mice were sacrificed to obtain skin tissues, and then tissues were fixed with paraffin and then prepared into tissue slices. These were stained with hematoxylin and eosin (H&E) and observed under a microscope (100×), and the results are shown in FIG. 4.

[2] = tested on: lipid peroxide production in liver homogenate; assay: Inhibition of lipid peroxide formation in rat liver homogenate (TBA method); type: biochemical, Sprague-Dawley rats; details: positive controls, FeSO4/ascorbic acid, 37° C., 30 minutes, mean ± standard error, read-out: Lipid peroxide production inhibitory activity IC50
Protocol: Lipid peroxide is a substance produced by peroxidation of lipids through various oxidation reactions. Reactive oxygen species, free radicals and the like oxidize phospholipids of cell membranes containing great amounts of unsaturated fatty acids, producing lipid peroxides in the cell membranes. […] The animals used in the experiment were male Sprague-Dawley rats, and only water was supplied for 24 hours before the experiment.

[3] = A. ageratoides 1%, minoxidil 3%

IC50 [2] [µM]	Structure (SMILES)	hair thickness ([1]; 1% Aster ageratoides extract, 3% minoxidil) [μm]	Hair length [1, 3]	Hair width [1, 3] [µm]	Hair length ([1]; A. ageratoides 1%, minoxidil 3%, listed as positive control) [mm]
	Nc1cc(N2CCCCC2)nc(N)[n+]1[O-] [Minoxidil, minoxidil]	53.19±4.04	6-9 mm	53.2 ± 4.04	6 to 9
> 100	Cc1c(C)c2c(c(C)c1O)CCC(C)(C(=O)O)O2 (centres unmarked) [Trolox]				
